Experimental data: patent USRE47689E1, “Compounds for treating spinal muscular atrophy” (PTC Therapeutics, Inc., priority 2011, dated 2019)
Where two headings read alike, the source gives them in different places.

Columns and labels:
[1] = test system: SMN2 minigene (full length SMN2 minigene mRNA containing SMN2 exon 7); assay: SMN2 minigene mRNA splicing RT-qPCR assay in cultured cells; format: cell-based, human; details: Homo sapiens, HEK293-H, read-out: EC1.5x for production of full length SMN2 mRNA
Procedure, shortened: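 Full-length SMN2 minigene mRNA (exon 7 included), minigene-specific and not endogenous SMN, quantified by RT-qPCR multiplexed with GAPDH in stably transfected HEK293H cells after 24 h compound exposure at 37° C. Abundance from efficiency-corrected Ct, normalized to GAPDH and vehicle; EC1.5x reported as star bins.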

Smn protein = Smn protein assay in cultured cells (SMN HTRF); format: cell-based, human; details: 48 hours; for maximum fold (Fold) increase of Smn protein: SMA patient fibroblast cells, 7-point concentration data, fold increase relative to vehicle control (SMN HTRF); for EC1.5x (concentration giving 1.5-fold Smn protein increase): SMA Type 1 patient fibroblast cells (GM03813), 7-point concentration curve, SMN HTRF, concentration producing 1.5 times Smn protein vs DMSO vehicle control, read-out: EC1.5x for Smn protein expression
Procedure, shortened: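 Smn in SMA fibroblast lysates, measured by anti-SMN HTRF after 48 h compound exposure; EC1.5x from fold change over vehicle.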

[2] = HEK293H cells stably transfected with SMN2-A minigene, 24 hours, 7-point concentration curve, 1.5-fold relative to vehicle-treated cells

C[C@H]1CN(c2ccc3cc(-c4cn5cc(C6CC6)cc(F)c5n4)c(=O)oc3c2)CCN1 [Compound 498, 3-(6-cyclopropyl-8-fluoroimidazo[1,2-a]pyridin-2-yl)-7-[(3S)-3-methylpiperazin-1-yl]-2H-chromen-2-one]
EC (1.5-fold) [1, 2]: 0.3 to 1 µM
maximum fold (Fold) increase of Smn protein (Smn protein): * (maximum fold increase of ≤1.2)
melting point: 254 to 263 °C

CN1CCCN(c2ccc3cc(-c4cn5cc(C6CC6)cc(F)c5n4)c(=O)oc3c2)CC1 [Compound 499, 3-(6-cyclopropyl-8-fluoroimidazo[1,2-a]pyridin-2-yl)-7-(4-methyl-1,4-diazepan-1-yl)-2H-chromen-2-one]
EC (1.5-fold) [1, 2]: 0.3 to 1 µM
maximum fold (Fold) increase of Smn protein (Smn protein): * (maximum fold increase of ≤1.2)
melting point: 234 to 244 °C

O=c1oc2cc(N3CCNCC3)ccc2cc1-c1cn2cc(C3CC3)cc(F)c2n1 [Compound 500, 3-(6-cyclopropyl-8-fluoroimidazo[1,2-a]pyridin-2-yl)-7-(piperazin-1-yl)-2H-chromen-2-one]
EC (1.5-fold) [1, 2]: 0.3 to 1 µM
maximum fold (Fold) increase of Smn protein (Smn protein): * (maximum fold increase of ≤1.2)
melting point: 261 to 271 °C

O=c1oc2cc(N3CCN4CCC3CC4)ccc2cc1-c1cn2cccc(F)c2n1 [Compound 501, 7-(1,4-diazabicyclo[3.2.2]non-4-yl)-3-(8-fluoroimidazo[1,2-a]pyridin-2-yl)-2H-chromen-2-one]
EC (1.5-fold) ([1]; 24 h): 0.1 to 0.3 µM
maximum fold (Fold) increase of Smn protein (Smn protein): ** (fold increase between >1.2 and ≤1.35)
melting point: 175 to 178 °C

O=c1oc2cc(N3CCNCC3)ccc2cc1-c1cn2cc(F)cnc2n1 [Compound 502, 3-(6-fluoroimidazo[1,2-a]pyrimidin-2-yl)-7-(piperazin-1-yl)-2H-chromen-2-one]
EC (1.5-fold) [1, 2]: 1 to 3 µM
maximum fold (Fold) increase of Smn protein (Smn protein): * (maximum fold increase of ≤1.2)
melting point: 250 to 261 °C

C[C@@H]1CN(c2ccc3cc(-c4cn5cc(C6CC6)cc(F)c5n4)c(=O)oc3c2)CCN1 [Compound 503, 3-(6-cyclopropyl-8-fluoroimidazo[1,2-a]pyridin-2-yl)-7-[(3R)-3-methylpiperazin-1-yl]-2H-chromen-2-one]
EC (1.5-fold) [1, 2]: 0.3 to 1 µM
maximum fold (Fold) increase of Smn protein (Smn protein): * (maximum fold increase of ≤1.2)
melting point: 254 to 264 °C

CN1CCN(c2ccc3cc(-c4cn5cc(C6CC6)cc(F)c5n4)c(=O)oc3c2)CC1 [Compound 504, 3-(6-cyclopropyl-8-fluoroimidazo[1,2-a]pyridin-2-yl)-7-(4-methylpiperazin-1-yl)-2H-chromen-2-one]
EC (1.5-fold) [1, 2]: 1 to 3 µM
maximum fold (Fold) increase of Smn protein (Smn protein): * (maximum fold increase of ≤1.2)
melting point: 277 to 287 °C

Cc1cccn2cc(-c3cc4ccc(N5CCN6CCC5CC6)cc4oc3=O)nc12 [Compound 505, 7-(1,4-diazabicyclo[3.2.2]non-4-yl)-3-(8-methylimidazo[1,2-a]pyridin-2-yl)-2H-chromen-2-one]
EC (1.5-fold) ([1]; 24 h): 3 to 30 µM
maximum fold (Fold) increase of Smn protein (Smn protein): * (maximum fold increase of ≤1.2)
melting point: 278 °C (dec.)

O=c1oc2cc(N3CC4CCC(C3)N4)ccc2cc1-c1cn2cccc(F)c2n1 [Compound 506, 7-(3,8-diazabicyclo[3.2.1]oct-3-yl)-3-(8-fluoroimidazo[1,2-a]pyridin-2-yl)-2H-chromen-2-one]
EC (1.5-fold) ([1]; 24 h): 0.1 to 0.3 µM
maximum fold (Fold) increase of Smn protein (Smn protein): ** (fold increase between >1.2 and ≤1.35)
melting point: 232 to 235 °C

CC1(C)CN(c2ccc3cc(-c4cn5cccc(F)c5n4)c(=O)oc3c2)CCN1 [Compound 507, 7-(3,3-dimethylpiperazin-1-yl)-3-(8-fluoroimidazo[1,2-a]pyridin-2-yl)-2H-chromen-2-one]
EC (1.5-fold) [1, 2]: 0.1 to 0.3 µM
EC1.5x (concentration giving 1.5-fold Smn protein increase) (Smn protein): < 300 nM
maximum fold (Fold) increase of Smn protein (Smn protein): **** (fold increase between >1.5 and ≤1.65)
melting point: 180 to 182 °C

CC1(C)CN(c2ccc3cc(-c4cn5cc(F)ccc5n4)c(=O)oc3c2)CCN1 [Compound 508, 7-(3,3-dimethylpiperazin-1-yl)-3-(6-fluoroimidazo[1,2-a]pyridin-2-yl)-2H-chromen-2-one]
EC (1.5-fold) [1, 2]: 0.3 to 1 µM
maximum fold (Fold) increase of Smn protein (Smn protein): ** (fold increase between >1.2 and ≤1.35)
melting point: 182 to 185 °C

C[C@H]1CN(c2ccc3cc(-c4cccc(Cl)c4)c(=O)oc3c2)CCN1 [Compound 509, 3-(3-chlorophenyl)-7-[(3S)-3-methylpiperazin-1-yl]-2H-chromen-2-one]
EC (1.5-fold) [1, 2]: 1 to 3 µM
maximum fold (Fold) increase of Smn protein (Smn protein): * (maximum fold increase of ≤1.2)
melting point: 149 to 151 °C

C[C@H]1CN(c2ccc3cc(-c4ccc(F)cc4Cl)c(=O)oc3c2)CCN1 [Compound 510, 3-(2-chloro-4-fluorophenyl)-7-[(3S)-3-methylpiperazin-1-yl]-2H-chromen-2-one]
EC (1.5-fold) [1, 2]: 3 to 30 µM
maximum fold (Fold) increase of Smn protein (Smn protein): * (maximum fold increase of ≤1.2)
melting point: 109 to 111 °C

Cc1cccc(-c2cc3ccc(N4CCNCC4)cc3oc2=O)c1 [Compound 511, 3-(3-methylphenyl)-7-(piperazin-1-yl)-2H-chromen-2-one]
EC (1.5-fold) ([1]; 24 h): 1 to 3 µM
maximum fold (Fold) increase of Smn protein (Smn protein): * (maximum fold increase of ≤1.2)
melting point: 118 to 120 °C

Cc1cccc(-c2cc3ccc(N4CCN[C@@H](C)C4)cc3oc2=O)c1 [Compound 512, 3-(3-methylphenyl)-7-[(3S)-3-methylpiperazin-1-yl]-2H-chromen-2-one]
EC (1.5-fold) [1, 2]: 1 to 3 µM
maximum fold (Fold) increase of Smn protein (Smn protein): * (maximum fold increase of ≤1.2)
melting point: 101 to 103 °C

C[C@H]1CN(c2ccc3cc(-c4ccc5c(c4)OCCO5)c(=O)oc3c2)CCN1 [Compound 513, 3-(2,3-dihydro-1,4-benzodioxin-6-yl)-7-[(3S)-3-methylpiperazin-1-yl]-2H-chromen-2-one]
EC (1.5-fold) [1, 2]: 1 to 3 µM
maximum fold (Fold) increase of Smn protein (Smn protein): * (maximum fold increase of ≤1.2)
melting point: 196 to 198 °C

C[C@@H]1CN(c2ccc3cc(-c4ccc5c(c4)OCCO5)c(=O)oc3c2)C[C@H](C)N1 [Compound 514, 3-(2,3-dihydro-1,4-benzodioxin-6-yl)-7-[(3R,5S)-3,5-dimethylpiperazin-1-yl]-2H-chromen-2-one]
EC (1.5-fold) [1, 2]: 3 to 30 µM
maximum fold (Fold) increase of Smn protein (Smn protein): * (maximum fold increase of ≤1.2)
melting point: 138 to 140 °C

Cc1cn2cc(-c3cc4ccc(N5CCCNCC5)cc4oc3=O)nc2c(C)n1 [Compound 518, 7-(1,4-diazepan-1-yl)-3-(6,8-dimethylimidazo[1,2-a]pyrazin-2-yl)-2H-chromen-2-one]
EC (1.5-fold) [1, 2]: < 0.1 µM
EC1.5x (concentration giving 1.5-fold Smn protein increase) (Smn protein): < 300 nM
maximum fold (Fold) increase of Smn protein (Smn protein): ***** (fold increase >1.65)
melting point: 188 to 190 °C

Cc1cn2cc(-c3cc4ccc(N5CCCN(C)CC5)cc4oc3=O)nc2c(C)n1 [Compound 519, 3-(6,8-dimethylimidazo[1,2-a]pyrazin-2-yl)-7-(4-methyl-1,4-diazepan-1-yl)-2H-chromen-2-one]
EC (1.5-fold) [1, 2]: < 0.1 µM
EC1.5x (concentration giving 1.5-fold Smn protein increase) (Smn protein): < 300 nM
maximum fold (Fold) increase of Smn protein (Smn protein): ***** (fold increase >1.65)
melting point: 253 to 255 °C

Cc1ccn2cc(-c3cc4ccc(N5CCN6CCC5CC6)cc4oc3=O)nc2c1 [Compound 521, 7-(1,4-diazabicyclo[3.2.2]non-4-yl)-3-(7-methylimidazo[1,2-a]pyridin-2-yl)-2H-chromen-2-one]
EC (1.5-fold) ([1]; 24 h): 0.3 to 1 µM
maximum fold (Fold) increase of Smn protein (Smn protein): ** (fold increase between >1.2 and ≤1.35)
melting point: 216 to 223 °C

CN1CCN(c2ccc3cc(-c4cn5cc(F)cc(F)c5n4)c(=O)oc3c2)CC1 [Compound 522, 3-(6,8-difluoroimidazo[1,2-a]pyridin-2-yl)-7-(4-methylpiperazin-1-yl)-2H-chromen-2-one]
EC (1.5-fold) [1, 2]: 0.3 to 1 µM
maximum fold (Fold) increase of Smn protein (Smn protein): * (maximum fold increase of ≤1.2)
melting point: 232 to 238 °C

C[C@@H]1CN(c2ccc3cc(-c4cn5cc(F)cc(F)c5n4)c(=O)oc3c2)C[C@H](C)N1 [Compound 523, 3-(6,8-difluoroimidazo[1,2-a]pyridin-2-yl)-7-[(3R,5S)-3,5-dimethylpiperazin-1-yl]-2H-chromen-2-one]
EC (1.5-fold) [1, 2]: 0.3 to 1 µM
maximum fold (Fold) increase of Smn protein (Smn protein): ** (fold increase between >1.2 and ≤1.35)
melting point: 267 to 277 °C

C[C@H]1CN(c2ccc3cc(-c4cn5cc(F)cc(F)c5n4)c(=O)oc3c2)CCN1 [Compound 524, 3-(6,8-difluoroimidazo[1,2-a]pyridin-2-yl)-7-[(3S)-3-methylpiperazin-1-yl]-2H-chromen-2-one]
EC (1.5-fold) [1, 2]: 0.3 to 1 µM
maximum fold (Fold) increase of Smn protein (Smn protein): * (maximum fold increase of ≤1.2)
melting point: 218 to 224 °C

C[C@H]1CN(c2ccc3cc(-c4cn5cccc(F)c5n4)c(=O)oc3c2)CCN1 [Compound 525, 3-(8-fluoroimidazo[1,2-a]pyridin-2-yl)-7-[(3S)-3-methylpiperazin-1-yl]-2H-chromen-2-one]
EC (1.5-fold) [1, 2]: 0.1 to 0.3 µM
maximum fold (Fold) increase of Smn protein (Smn protein): *** (fold increase between >1.35 and ≤1.5)
melting point: 190 to 193 °C
